One data set relates to C. elegans young adults. In words: C. elegans dose-response assay, motility. The arrangement: species or system Caenorhabditis elegans. The procedure:
The dose–response assay for C. elegans followed a well-established protocol and was employed to evaluate the potency of hit compounds against this nematode. Test and positive-control compounds as well as negative controls were prepared in 96-well microplates (cf.). One hundred C. elegans in 50 μl of LB* were added to each well to give a final volume of 100 μl. Plates were then placed in an incubator at 20 °C for 40 h. At 40 h, worm activity was captured using a WMicroTracker ONE unit. Raw activity counts for each well were normalised to the negative controls. The compound concentrations were log10-transformed and fitted using a variable-slope four-parameter equation, using the ordinary least squares fit model, employing GraphPad Prism (v.9.1.0). A one-way ANOVA with a Tukey multiple comparison test or an unpaired t-test was used to establish statistically significant differences in larval motility.

Data set [1] has as its system exsheathed third-stage larvae (xL3s) of Haemonchus contortus. Description: Primary screen, H. contortus larval development and phenotype (microscopy). The conditions noted are these: 20 µM, 168 h. The procedure:
An established high-throughput phenotypic screening assay was used to test the anthelmintic activity of compounds on H. contortus xL3s. Compounds were assessed for motility inhibition at a concentration of 20 µM in LB*. […] A solution of LB* + 1% (v/v) DMSO was used as a negative control. Test compounds were distributed amongst one flat-bottom, 384-well microplate (cat no. 3860; Corning, Corning, NY, USA). Eighty xL3s of H. contortus in 20 µl of LB* were added to each well to give a final volume of 40 µl. The plate was then placed in a CO2 incubator (10% [v/v] CO2, 38 °C, > 90% humidity). At 90 h, worm activity was captured using a WMicroTracker ONE unit (Phylumtech, Sunchales, Santa Fe, Argentina). Over a period of 15 min, disturbance of an infrared beam in individual wells was recorded as a worm ‘activity count’. Activity counts were then normalised to the positive and negative controls using the GraphPad Prism program (v.9.1.0 GraphPad Software, San Diego, CA, USA). The screening plate was then returned to the incubator (10% [v/v] CO2, 38 °C, > 90% humidity) for an additional 72 h. At 168 h, worms were fixed with 40 µl of Lugol solution (Sigma-Aldrich, St. Louis, MO, USA). Compounds were then assessed (microscopically) for inhibition of larval development and/or induction of a non-wild-type phenotype in H. contortus worms. […] The performance of the assay was monitored using the Z′-factor [58] calculated using data for the negative (DMSO) and positive (M-666) control compounds on individual plates.

Data set [2] in a line: Cytotoxicity on HepG2 cells (glucose medium, crystal violet). The data set is classed as cell-based. The conditions noted are these: human, D-glucose medium, read-out: half-maximal cytotoxic concentration (CC50). The procedure:
The cytotoxic and mitotoxic activity of MMV1794206 on HepG2 human hepatoma cells was evaluated using an established protocol. The test compounds were serially diluted (seven-point, twofold serial dilution, 40–0.63 µM) in Dulbecco’s modified Eagle medium (DMEM; Thermo Fisher Scientific, USA), with GlutaMax™ supplemented with 25 mM D-glucose (cytotoxicity) or D-galactose (mitotoxicity), 10% heat-inactivated foetal bovine serum (FBS), 100 IU/ml of penicillin, 100 µg/ml of streptomycin and 0.25 µg/ml of amphotericin B (denoted as DMEM*). Monepantel and moxidectin (prepared in the same manner as the test compound) were included as reference compounds. Two compounds, doxorubicin (cytotoxic; Sigma-Aldrich, USA) and M-666 (mitotoxic; [57]), were used as positive controls at a single concentration of 10 µM. A solution of DMEM* + 0.25% (v/v) DMSO was used as a negative control. HepG2 cells were seeded into wells of a 96-well plate in 80 µl of DMEM* (at 1 × 10^5 cells per well) and allowed to adhere for 16 h at 37 °C and 5% (v/v) CO2 at > 90% humidity prior to incubation with individual compounds, at a final volume of 100 µl. […] Following 48 h of incubation with compounds, cell viability was determined by crystal violet staining. The absorbance (595 nm) of treated cells was normalised using the negative controls (viability: 100%) to calculate the cell viability. […]

The test system of data set [3] is acetylcholine esterase (AChE). The settings on record: in vitro and in vivo; direct or indirect effect not confirmed; cited from earlier work.

pIC50: −log10 of the molar value. Bounds are passed on as bounds.

For `CC(F)c1ncnc(NCCc2ccc(OC(F)(F)F)cc2)c1Cl` (stereo not shown) [MMV1794206, flufenerim], the “Maximum motility inhibition (MMI), C. elegans” value in the data set with C. elegans young adults (40 h of incubation) came to 100%. Also, in the data set with C. elegans young adults (Caenorhabditis elegans, 40 h, read-out: IC50, C. elegans young adult motility, 40 h of incubation), the pIC50 is 6.66. For the same compound, in data set [1] (H. contortus larvae), the Abnormal phenotype entry is on record as “Cur” and the “Induction of an abnormal phenotype (in words)” value is on record as “induced an abnormal phenotype”. The inhibition at 20 µM in data set [1] (Haemonchus contortus, H. contortus, read-out: Larval development inhibition, %) turned out to be 100%. Besides, in data set [2], the CC50 at 48 h is < 0.7 µM. In data set [3], the “AChE activity in whiteflies following treatment” value is “decrease in acetylcholine esterase (AChE) activity”.

Usually pIC50 stands for the IC50 on a negative log10 scale, so that one unit is a factor of ten. Usually inhibition stands for the change of the read-out against control, counted positive when it falls.

(Values after paper PMC10938758, “A phenotypic screen of the Global Health Priority Box identifies an insecticide with anthelmintic activity” (Parasites & Vectors, 2024).)
